Test results taken from US11969511B2, “Methods and compositions for antimicrobial treatment” (UNM Rainforest Innovations, priority 2015, dated 2024).
Converted amounts (≈) assume the structure as drawn. Where a name gives a salt, the structure may show the parent alone.

Key:
[1] = system: P. aeruginosa biofilms; experiment: Minimum inhibitory concentration, biofilm phase (XTT); format: cell-based, Pseudomonas aeruginosa PAO1; conditions: 24 h
Description: Biofilm phase. P. aeruginosa biofilms were developed in sterile 96 well plates (BD biosciences, USA) as described above. Biofilms were washed twice with PBS and ciprofloxacin was administered in a concentration gradient (two fold). The plates were incubated for 24 h at 37° C. and 80 rpm. At the end of incubation period, XTT reduction assay was performed to quantify the viability of biofilms. […] The assay was performed quadruplicates at three times.

[2] = system: P. aeruginosa biofilm; experiment: Biofilm-inhibition through mucin and alginate barriers (in vitro CF biofilm model, disks); format: cell-based, Pseudomonas aeruginosa; design: key to Sensitivity, Mucin barrier / Sensitivity, Alginate barrier / Sensitivity, Both barriers: S for sensitive; I for intermediate; R for resistant; conditions: tobramycin 2 mg/mL; for Sensitivity, Alginate barrier / Sensitivity, Both barriers / Sensitivity, Mucin barrier: NPs 50 mg/mL; for Biofilm inhibition (number), Alginate barrier / Biofilm inhibition (number), Both barriers / Biofilm inhibition (number), Mucin barrier: NPs alginate capped 50 mg/mL
From the text: Disk diffusion method. The disk diffusion method is one of the most popular approaches to bacterial sensitivity testing due to its low cost and efficiency. The disk, impregnated with a candidate antibiotic drug or compound of interest, is placed on the inoculated agar; which contains a uniform layer of bacteria taken from liquid culture. The disks are commercially available, containing the proper concentrations of antibiotic drugs based on […]. As a low-cost alternative, disks may be prepared using filter paper soaked in the appropriate aqueous concentrations of the antibiotic drugs of interest. The underside of the plate is numbered for each sample to be tested. The cultures are distributed evenly onto a sterile agar plate using a sterile cotton swab to form a uniform layer on the agar. The disks, impregnated with NPs, drug, or NP-drug conjugates are then placed on top of the agar. The cultures are allowed to grow in the previous conditions overnight (16-18 hours). For these experiments, an vitro biofilm model was that would mimic the infection in CF in which there is an alginate and mucin barrier to drug diffusion.

[3] = system: P. aeruginosa; experiment: Minimum inhibitory concentration of tobramycin (dilution series, plating); format: cell-based; conditions: Pseudomonas aeruginosa
Description: Determination of minimum inhibitory concentration of tobramycin. […] Afterwards, tobramycin was serially diluted into 1 mL of DI H2O and added to the 1 mL aliquots of overnight bacterial culture to the final concentrations of tobramycin ranging from 25 to 250 μg/mL, with 25 μg/mL increments. For the control, 1 mL of sterile DI H2O was added to the aliquot of the culture. The cultures were then grown overnight on a rotary shaker at 37° C. and 150 rpm. The next day, 50 μL aliquots of the overnight cultures were diluted 1:2 with TSB, plated on the TS nutrient agar plates, and grown for 24 hours at 37° C. The next-day plates were checked for the presence of bacterial colonies. […] These findings introduce a starting point for inhibition of established biofilms. This is the MIC for tobramycin alone, without attachment to NPs.

[4] = after magnetic treatment at 24 hours

O=C(O)c1cn(C2CC2)c2cc(N3CCNCC3)c(F)cc2c1=O [Cipro, Ciprofloxacin hydrochloride]
MIC80 of P. aeruginosa biofilms [1]: 1 µg/mL

NC[C@H]1O[C@H](O[C@H]2[C@H](O)[C@@H](O[C@H]3O[C@H](CO)[C@@H](O)[C@H](N)[C@H]3O)[C@H](N)C[C@@H]2N)[C@H](N)C[C@@H]1O [Tobramycin, tobramycin]
Sensitivity, Alginate barrier [2, 4]: S | Sensitivity, Both barriers [2, 4]: S | Sensitivity, Mucin barrier [2, 4]: S | Biofilm inhibition (number), Alginate barrier [2, 4]: 30 | Biofilm inhibition (number), Both barriers [2, 4]: 20 | Biofilm inhibition (number), Mucin barrier [2, 4]: 32 | Sensitivity, Alginate barrier ([2]; no magnetic treatment): S | Sensitivity, Both barriers ([2]; no magnetic treatment): S | Sensitivity, Mucin barrier ([2]; no magnetic treatment): S | Biofilm inhibition (number), Alginate barrier ([2]; no magnetic treatment): 40 | Biofilm inhibition (number), Both barriers ([2]; no magnetic treatment): 40 | Biofilm inhibition (number), Mucin barrier ([2]; no magnetic treatment): 30 | MIC ([3]; biofilm cells): 50 µg/mL (≈ 107 µM) | MIC ([3]; planktonic cells): 15 µg/mL (≈ 32.1 µM)
